Measurements as given in patent publication US7598412B2, “Modulators of ATP-binding cassette transporters” (Vertex Pharmaceuticals Incorporated, priority 2003, dated 2009).
“And” between values parts separate entries of the source, which are not always exact repeats. Identical values can stand only once.

System: cAMP levels in FRT cells
Experiment: Tropix assay for measurement of cAMP in FRT cells
Assay type: cell-based, rat
Details: n=4; for cAMP generated, average % of cAMP produced by 20 μM of forskolin: 15 minutes incubation
Experimental: In the following example, the effect on cAMP levels by three structurally similar compounds from Table 1 were determined using the cAMP levels from 20 μM forskolin as the normalized reference measure.
The level of cAMP in FRT cells following 0.5 μM forskolin or test compound application was determined using a commercially available chemiluminiscent immunoassay system for mammalian cells called Tropix® (Applied Biosystems, Bedford, Mass.). Briefly, FRT cells were incubated for 15 minutes with a test compound in the presence and absence of 0.5 μM forskolin. The compounds were aspirated and the cells were then lysed and transferred along with the lysis buffer to a 96-well Tropix® ELISA plate. A cAMP-Alk Phos conjugate is then added to the assay plate, followed by the addition of cAMP anti-body. After several wash and aspiration steps, Sapphire blue II solution is added and the […], and the cAMP concentrations were determined using a cAMP standard curve that was present in each plate.

[1] = compound in the presence of 0.5 μM forskolin, FRT cells

SMILES	cAMP generated, average % of cAMP produced by 20 μM of forskolin (compound alone, FRT cells)	cAMP generated, average % of cAMP produced by 20 μM of forskolin [1]	change of cAMP compared with the DMSO control (compound alone)	change of cAMP compared with the 0.5 μM forskolin control (compound in the presence of 0.5 μM forskolin)	cAMP of the 0.5 μM forskolin control, % of 20 μM forskolin (0.5 μM forskolin alone, FRT cells)
COc1ccc(C2(CNC(=O)c3cc4ccccc4o3)CCCC2)cc1OC [Compound 7, N-((1-(3,4-dimethoxyphenyl)-cyclopentyl)methyl)benzofuran-2-carboxamide]	40.3±3.5%	92.3±2.7%	–	–	–
COc1ccc(C(C)(C)CNC(=O)c2cc3ccccc3o2)cc1OC [Compound 34, N-(2-(3,4-dimethoxyphenyl)-2-methylpropyl)benzofuran-2-carboxamide]	24.4±1.1%	61.5±1.8%	not a significant increase	significant increase	–
C=C[C@@]1(C)CC(=O)[C@]2(O)[C@@]3(C)[C@@H](O)CCC(C)(C)[C@@H]3[C@H](O)[C@H](OC(C)=O)[C@@]2(C)O1 [forskolin, reference compound]	–	–	–	–	45.9±3.0% and 32.2±3.2%
